Data published in paper PMC4446620, “Bioactive Metabolites from Mangrove Endophytic Fungus Aspergillus sp. 16-5B” (Marine Drugs, 2015).
Entries after “also recorded” stand apart in the source; their conditions may differ.

Tests used:
α-glucosidase = α-glucosidase (Saccharomyces cerevisiae, UniProt P53341); assay: Assay for α-glucosidase inhibitory activity; type: biochemical; conditions: for inhibitory effect against α-glucosidase compared with acarbose, in words: versus the clinical α-glucosidase inhibitor acarbose
Chain of α-glucosidase (P53341 whole entry): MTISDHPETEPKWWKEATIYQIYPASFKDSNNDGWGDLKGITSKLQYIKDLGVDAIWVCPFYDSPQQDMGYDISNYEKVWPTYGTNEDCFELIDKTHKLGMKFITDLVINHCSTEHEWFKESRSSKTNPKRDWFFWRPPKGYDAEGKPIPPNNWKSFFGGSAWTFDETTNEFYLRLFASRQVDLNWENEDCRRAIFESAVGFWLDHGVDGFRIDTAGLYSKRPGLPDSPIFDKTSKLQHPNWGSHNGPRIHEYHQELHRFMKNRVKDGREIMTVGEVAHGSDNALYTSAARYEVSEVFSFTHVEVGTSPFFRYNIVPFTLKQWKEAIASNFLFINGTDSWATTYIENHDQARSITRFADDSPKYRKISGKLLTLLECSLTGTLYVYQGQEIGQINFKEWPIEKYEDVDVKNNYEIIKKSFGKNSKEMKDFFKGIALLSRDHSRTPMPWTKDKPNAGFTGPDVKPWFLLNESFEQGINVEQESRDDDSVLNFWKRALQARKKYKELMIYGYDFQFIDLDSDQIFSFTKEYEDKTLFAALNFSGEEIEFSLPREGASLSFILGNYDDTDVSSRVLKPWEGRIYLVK
Method: All of the tests for α-glucosidase inhibitory activity were according to a previously described method. […] The reaction was monitored spectrophotometrically by measuring the absorbance at 400 nm for 1-min intervals. […] The IC50 values of the compounds were calculated by nonlinear regression analysis and expressed as the mean ± SD of two distinct experiments. Kinetic parameters were determined using the Lineweaver-Burk double-reciprocal plot method at increasing concentrations of substrates and inhibitors.

Cc1c(O)cc2c(c1O)C(=O)O[C@@H]2[C@H](C)O [Compound 6, pestaphthalides A]
α-glucosidase inhibitory activity, in words (α-glucosidase): moderate inhibitory activities | inhibitory effect against α-glucosidase compared with acarbose, in words (α-glucosidase): more potent inhibitory effects

COC1(C)OC(=O)c2c(cc(O)c(C)c2O)C1=O (stereo not shown) [Compound 3]
melting point: 134.2 to 134.8 °C

CC=Cc1cc2c(o1)C(=O)C(C)(OC(=O)c1c(C)cc(O)cc1O)C(O)C2 (stereo not shown) [Compound 1, aspergifuranone]
melting point: 121.1 to 121.6 °C | inhibition type of α-glucosidase (kinetic analysis) (α-glucosidase; Lineweaver-Burk plot method): noncompetitive inhibitor; also recorded: noncompetitive inhibition | inhibitory effect against α-glucosidase compared with acarbose, in words (α-glucosidase): more potent inhibitory effects

COC1(C)OC(=O)c2c(cc(O)c(C)c2O)C1O (stereo not shown) [Compound 2]
melting point: 174.4 to 174.9 °C | α-glucosidase inhibitory activity, in words (α-glucosidase): moderate inhibitory activities | inhibitory effect against α-glucosidase compared with acarbose, in words (α-glucosidase): more potent inhibitory effects

CCC[C@@]1(O)OC(=O)c2c1cc(O)c(O)c2C [Compound 4, (R)-3-demethylpurpurester A]
melting point: 201.2 to 201.9 °C
